PubChem BioAssay AID248 (DTP/NCI, 2004)
“And” between values parts separate entries of the source, which are not always exact repeats. Equal values may be shown once. Inconclusive results and toxic doses are left out. Cut-off read from the data, not from the text of the source: active = T/C of 150% or more; inactive = T/C below 125%.

Tested on: L1210 leukemia ip in BDF1 mice, survival T/C
Assay: NCI In Vivo Anticancer Drug Screen. Data for tumor model L1210 Leukemia (intraperitoneal) in B6D2F1 (BDF1) mice
Details: endpoint: mean survival time, higher = longer survival
How it was run: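 Mice bearing the transplanted tumor received compound or vehicle. Survival of the treated group was divided by that of the vehicle-treated control group to give the ratio.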

[1] = dose: 100.0 mg/kg/injection, schedule: Q01DX001 (ip), vehicle: carboxymethylcellulose (CMC)
[2] = dose: 200.0 mg/kg/injection, schedule: Q01DX001 (ip), vehicle: carboxymethylcellulose (CMC)
[3] = dose: 400.0 mg/kg/injection, schedule: Q01DX001 (ip), vehicle: carboxymethylcellulose (CMC)
[4] = dose: 100.0 mg/kg/injection, schedule: Q04DX003 (ip), vehicle: saline with Tween-80
[5] = dose: 50.0 mg/kg/injection, schedule: Q04DX002 (ip), vehicle: Klucel (hydroxypropylcellulose) (HPC)
[6] = dose: 100.0 mg/kg/injection, schedule: Q04DX002 (ip), vehicle: Klucel (hydroxypropylcellulose) (HPC)
[7] = dose: 200.0 mg/kg/injection, schedule: Q04DX002 (ip), vehicle: Klucel (hydroxypropylcellulose) (HPC)
[8] = dose: 400.0 mg/kg/injection, schedule: Q04DX002 (ip), vehicle: Klucel (hydroxypropylcellulose) (HPC)
[9] = dose: 100.0 mg/kg/injection, schedule: Q01DX001 (ip), vehicle: saline with Tween-80
[10] = dose: 200.0 mg/kg/injection, schedule: Q01DX001 (ip), vehicle: saline with Tween-80
[11] = dose: 400.0 mg/kg/injection, schedule: Q01DX001 (ip), vehicle: saline with Tween-80
[12] = dose: 100.0 mg/kg/injection, schedule: Q04DX003 (ip), vehicle: Klucel (hydroxypropylcellulose) (HPC)
[13] = dose: 200.0 mg/kg/injection, schedule: Q04DX003 (ip), vehicle: Klucel (hydroxypropylcellulose) (HPC)
[14] = dose: 400.0 mg/kg/injection, schedule: Q04DX003 (ip), vehicle: Klucel (hydroxypropylcellulose) (HPC)
[15] = dose: 200.0 mg/kg/injection, schedule: Q04DX003 (ip), vehicle: saline with Tween-80
[16] = dose: 400.0 mg/kg/injection, schedule: Q04DX003 (ip), vehicle: saline with Tween-80

Measured: T/C

CC(=O)OCC1OC(n2ccc3c(=O)[nH]cnc32)C(OC(C)=O)C1OC(C)=O (stereo not given)
inactive: dose: 25.0 mg/kg/injection, schedule: Q01DX015 (ip), vehicle: carboxymethylcellulose (CMC) 121 % of control | dose: 50.0 mg/kg/injection, schedule: Q01DX001 (ip), vehicle: carboxymethylcellulose (CMC) 94 % of control | dose: 50.0 mg/kg/injection, schedule: Q01DX015 (ip), vehicle: carboxymethylcellulose (CMC) 112 % of control | [1] 96 % of control | [2] 100 % of control | [3] 102 % of control

CS(=O)(=O)OCCN(CCOS(C)(=O)=O)c1cccc(N)c1
209 % of control and 86 % of control: dose: 8.0 mg/kg/injection, schedule: Q01DX001 (ip), vehicle: saline
inactive: dose: 0.22 mg/kg/injection, schedule: Q01DX001 (ip), vehicle: saline 105 % of control | dose: 0.33 mg/kg/injection, schedule: Q01DX001 (ip), vehicle: saline 105 % of control | dose: 0.5 mg/kg/injection, schedule: Q01DX001 (ip), vehicle: saline 97 % of control and 110 % of control | dose: 0.75 mg/kg/injection, schedule: Q01DX001 (ip), vehicle: saline 106 % of control | dose: 1.0 mg/kg/injection, schedule: Q01DX001 (ip), vehicle: saline 109 % of control | dose: 2.0 mg/kg/injection, schedule: Q01DX001 (ip), vehicle: saline 117 % of control | dose: 3.5 mg/kg/injection, schedule: Q01DX001 (ip), vehicle: saline 116 % of control | dose: 5.3 mg/kg/injection, schedule: Q01DX001 (ip), vehicle: saline 91 % of control

OCC1OC(n2cc(Cl)c3cncnc32)C(O)C1O (stereo not given)
inactive: dose: 50.0 mg/kg/injection, schedule: Q01DX005 (ip), vehicle: saline 101 % of control

CS(=O)(=O)c1ccc(Sc2ccc(S(C)(=O)=O)cc2)cc1
inactive: dose: 12.5 mg/kg/injection, schedule: Q01DX009 (ip), vehicle: saline with Tween-80 105 % of control | dose: 25.0 mg/kg/injection, schedule: Q01DX009 (ip), vehicle: saline with Tween-80 96 % of control | dose: 25.0 mg/kg/injection, schedule: Q04DX003 (ip), vehicle: saline with Tween-80 98 % of control | dose: 50.0 mg/kg/injection, schedule: Q01DX009 (ip), vehicle: saline with Tween-80 92 % of control | dose: 50.0 mg/kg/injection, schedule: Q04DX003 (ip), vehicle: saline with Tween-80 94 % of control | [4] 93 % of control

O/N=C1\c2ccccc2-c2cc(Br)ccc21
inactive: [1] 95 % of control | [2] 95 % of control | [3] 90 % of control

CC(=O)NC1Cc2cc(C)cc(C)c21 (stereo not given)
inactive: [5] 105 % of control | [6] 102 % of control | [7] 98 % of control

Cc1ccc(C(=O)OCc2ccccc2CN2CCCCC2C)cc1 (stereo not given)
inactive: [6] 94 % of control | [7] 108 % of control | [8] 90 % of control

O=C(NCCCl)NC1(C(=O)O)CCCC1
inactive: dose: 100.0 mg/kg/injection, schedule: Q01DX001 (ip), vehicle: Klucel (hydroxypropylcellulose) (HPC) 98 % of control | dose: 200.0 mg/kg/injection, schedule: Q01DX001 (ip), vehicle: Klucel (hydroxypropylcellulose) (HPC) 107 % of control | dose: 400.0 mg/kg/injection, schedule: Q01DX001 (ip), vehicle: Klucel (hydroxypropylcellulose) (HPC) 98 % of control

O=C(O)Cc1ccc(Cl)cc1
inactive: dose: 75.0 mg/kg/injection, schedule: Q04DX003 (ip), vehicle: saline with Tween-80 93 % of control | [9] 98 % of control | dose: 150.0 mg/kg/injection, schedule: Q04DX003 (ip), vehicle: saline with Tween-80 96 % of control | [10] 95 % of control | dose: 300.0 mg/kg/injection, schedule: Q04DX003 (ip), vehicle: saline with Tween-80 87 % of control | [11] 91 % of control

CC1=NN(c2ccccc2)C(=O)C1N=Nc1ccc(S(=O)(=O)Nc2ncccn2)cc1 (stereo not given)
inactive: [1] 100 % of control | [2] 94 % of control | [3] 89 % of control

C[N+](C)(C)CC(O)CCl (stereo not given)
inactive: dose: 100.0 mg/kg/injection, schedule: Q01DX001 (ip), vehicle: saline 95 % of control | dose: 200.0 mg/kg/injection, schedule: Q01DX001 (ip), vehicle: saline 102 % of control

O=C(O)NNC(=O)NO
inactive: [9] 94 % of control | [10] 94 % of control | [11] 92 % of control

OC(Br)C1C(c2ccccc2)N1C1CCCCC1 (stereo not given)
inactive: [12] 98 % of control | [13] 91 % of control | [14] 93 % of control

NOCc1csc(Nc2ccccc2)n1
inactive: dose: 100.0 mg/kg/injection, schedule: Q04DX003 (ip), vehicle: saline 100 % of control | dose: 200.0 mg/kg/injection, schedule: Q04DX003 (ip), vehicle: saline 88 % of control

CCOC(=O)CCN(C(=S)Nc1ccccc1)C1CCCCC1
inactive: dose: 100.0 mg/kg/injection, schedule: Q01DX Z (ip), vehicle: methylcellulose (MC) 94 % of control | dose: 200.0 mg/kg/injection, schedule: Q01DX Z (ip), vehicle: methylcellulose (MC) 92 % of control

CCOC(=O)C1CCC(=O)N1 (stereo not given)
inactive: [12] 96 % of control | [13] 98 % of control | [14] 98 % of control

Cc1ccc(N=CNN=C(N)N)cc1
inactive: dose: 120.0 mg/kg/injection, schedule: Q01DX Z (oral), vehicle: methylcellulose (MC) 97 % of control | dose: 240.0 mg/kg/injection, schedule: Q01DX Z (ip), vehicle: methylcellulose (MC) 101 % of control | dose: 240.0 mg/kg/injection, schedule: Q01DX Z (oral), vehicle: methylcellulose (MC) 96 % of control | dose: 360.0 mg/kg/injection, schedule: Q01DX Z (ip), vehicle: methylcellulose (MC) 104 % of control | dose: 480.0 mg/kg/injection, schedule: Q01DX Z (ip), vehicle: methylcellulose (MC) 102 % of control | dose: 480.0 mg/kg/injection, schedule: Q01DX Z (oral), vehicle: methylcellulose (MC) 92 % of control

CCc1cc2oc(C)c(C)c2c2nc(C)oc12
inactive: [5] 101 % of control | [6] 99 % of control and 104 % of control | [7] 101 % of control | [8] 96 % of control

O=C1CCCCC12CCCC2
inactive: dose: 100.0 mg/kg/injection, schedule: Q01DX009 (ip), vehicle: saline sonified 97 % of control | dose: 200.0 mg/kg/injection, schedule: Q01DX009 (ip), vehicle: saline sonified 103 % of control | dose: 400.0 mg/kg/injection, schedule: Q01DX009 (ip), vehicle: saline sonified 93 % of control

CNc1ncnc2c1c(Br)cn2C1OC(CO)C(O)C1O (stereo not given)
inactive: dose: 5.0 mg/kg/injection, schedule: Q01DX001 (ip), vehicle: saline 104 % of control | dose: 10.0 mg/kg/injection, schedule: Q01DX001 (ip), vehicle: saline 104 % of control | dose: 20.0 mg/kg/injection, schedule: Q01DX001 (ip), vehicle: saline 104 % of control

C/C(Cc1ccccc1)=N/N(C)C
inactive: dose: 100.0 mg/kg/injection, schedule: Q01DX009 (ip), vehicle: saline with Tween-80 113 % of control | [4] 102 % of control | dose: 200.0 mg/kg/injection, schedule: Q01DX009 (ip), vehicle: saline with Tween-80 104 % of control | [15] 95 % of control | [16] 95 % of control

CCC(O)CNC1CCCCC1 (stereo not given)
inactive: dose: 75.0 mg/kg/injection, schedule: Q01DX001 (ip), vehicle: saline 98 % of control | dose: 150.0 mg/kg/injection, schedule: Q01DX001 (ip), vehicle: saline 98 % of control

O=C(O)/C=C\C(=O)Nc1ccc(F)cc1
inactive: [4] 98 % of control | [15] 101 % of control | [16] 101 % of control

CC(=O)Nc1ccc(S(=O)(=O)NC(=O)NCCC(C)C)cc1
inactive: [4] 94 % of control | [15] 102 % of control | [16] 102 % of control

O=C1OC2CC3CCC2C13 (stereo not given)
inactive: dose: 6.25 mg/kg/injection, schedule: Q01DX001 (ip), vehicle: saline 96 % of control | dose: 12.5 mg/kg/injection, schedule: Q01DX001 (ip), vehicle: saline 96 % of control | dose: 25.0 mg/kg/injection, schedule: Q01DX001 (ip), vehicle: saline 98 % of control
